Experimental findings from PMC12668304, “A Triple Threat Against Ovarian Cancer: Os(II)‐Pt(IV)‐Ceritinib Conjugates for Photodynamic Therapy, Chemotherapy, and Immunogenic Cell Death Induction” (Angewandte Chemie (International Ed. in English), 2025) are described below.

Read-outs that look alike come from different tables or passages of the source.

One assay deals with A2780 MCTSs. Nature of the assay: (Photo-)cytotoxicity on 3D multicellular tumour spheroids, resazurin assay. The format is cell-based, human. Conditions: for IC50: normoxic, one week of incubation. How it is done:
A2780 spheroids (ca. 500 µm in diameter) were treated with increasing concentrations of the compounds and after 24 h of incubation, the medium was replaced with fresh medium, and the cells were either kept in the dark or irradiated for 1 h at 740 nm. Images of the spheroids were taken every 24 h for 3 days.
Additionally, the phototoxicity was tested via a fluorometric resazurin assay in A2780 MCTSs (Table 3). […] (Figure S29). […] This can be attributed to the different biological endpoints and time frames of the assays: spheroid diameter was monitored over 72 h, whereas resazurin measurements were performed after 7 days, potentially capturing delayed cytotoxic effects due to differences in drug cellular uptake.
4 h of incubation, the conversion of resazurin into resorufin was determined upon excitation at 540 nm and measurement of its emission at 590 nm using a Cytation 5 Imaging Reader from BioTek. The obtained data was analysed with the GraphPad Prism software
MCTS were cultured using ultra-low attachment 96 wells plates from Corning (Fisher Scientific 15329740). A2780 cells were seeded at a density of 1,500 cells per well in 100 μL of RPMI. Within 2-3 days, MCTSs have approximately 500 μm of diameter. The formation as well as integrity and diameter of the MCTSs were monitored by microscopy.
(Photo-)cytotoxicity on 3D multicellular tumor spheroids (MCTS)
After 2 days of growing at 37 °C in 5% CO2, the medium was removed, and MCTSs were treated by adding 100 μL of the medium in the well with increasing concentrations of compounds (Os-Pt-Cer, Os, Ceritinib, Oxaliplatin, cisplatin, and Ce6 as additional control). For untreated reference MCTSs, only half of the medium was added with fresh medium. After 24 hours, the MCTSs were divided into two identical groups. The first group was strictly kept in the dark. The second group was irradiated at 740 nm for 1 h (12.60 J·cm-2) using a LUMOS-BIO photoreactor (Atlas Photonics). After the irradiation, all groups were incubated additional 7 days. Thereafter, medium was replaced with 100 μL of fresh medium containing resazurin (0.2 mg/mL). After 24 h of incubation at 37 °C, 5% CO 2, plates were read using a SpectraMaxM2 Microplate Reader ( λexc = 540 nm; λread = 590 nm). Fluorescence data were normalised, and data were fitted using GraphPad Prism Software, and IC 50 was calculated by non - linear regression. Changes in the size and shape of MCTS were monitored every 24 h using Cytation 5 Imaging Reader from BioTek, objective x4. […]
Figure S29. Cell viability graphs after one week of incubation. Studied compounds were incubated for 24 h, thereafter the medium was renovated. For PDT, plates were irradiated at 740 nm for 1h using a LUMOS-BIO photoreactor (Atlas Photonics). For both PDT and regular cytotoxicity, cells were incubated for one week at 37 °C, 5 % CO2. The medium was renovated each two days. Then, the medium was replaced with 100 µL of fresh medium containing 0.2 mg/mL resazurin (Acros Organics). After 24 h of incubation, the fluorescence signal of the resazurin product was recorded (λexc = 540 nm; λem = 590 nm) using a Cytation 5 Cell Imaging Multi-Mode Reader (Biotek - Agilent).
(1 picture or pasted object on this page, not shown here)
Background: Alamar Blue is a resazurin reagent that responds to reducing activity.

Another assay relates to RPE‐1 cells. Nature of the assay: (Photo-)cytotoxicity on 2D cell monolayers, resazurin assay. As to conditions: RPE‐1, normoxic, dark, 4 h exposure, total 48 h incubation, read-out: IC50 Dark. The format is cell-based. How it is done: The 2D cytotoxicity and phototoxicity profiles of Os‐Pt‐Cer and controls, were evaluated in a panel of cancerous cell lines, including A2780 (ovarian carcinoma), A549 (non‐small cell lung carcinoma), and MCA205 (murine fibrosarcoma), as well as a non‐cancerous retinal pigment epithelial cell line (RPE‐1). Cells were treated with the compounds (0.003–100 µM) for 4 h, either kept in the dark or irradiated at 670 nm (13.5 J cm^− ^2) (Table S4 and Figure S22) or 740 nm (12.6 J cm^− ^2) and viability was assessed 44 h post‐treatment. To verify robustness, the incubation was extended to 72 h. […]
Human ovarian cancer (A2780) cells and mouse fibrosarcoma cells (MCA205) were cultured in RPMI media. Retinal pigment epithelium (RPE -1) cells were cultured in DMEM/F -12 medium. Lung cancer cells (A549) were cultured in F -12K medium. These cell lines were complemented with 10% of fetal bovine serum, 100 U/mL penicillin -streptomycin mixture, and maintained in a humidified atmosphere […]
(Photo-)cytotoxicity on 2D cell monolayers
The cytotoxicity of the compounds was assessed by measuring cell viability using a resazurin assay.
The cells were seeded in triplicates in 96 well plates with a density of 10 4 cells per well in 100 μL of media. After 24 h, the medium was removed, and the cells were treated with increasing concentrations (0.003 → 100 µM) of the compounds diluted in cell media , achieving a total volume of 100 μL/well.
The cells were incubated with the compound for 4 h (final incubation time 48 h) or 24 h (final incubation time 72 h). After this time, the media was removed and replaced with 100 μL of fresh medium. For the phototoxicity studies, the cells were exposed to light with an Atlas Photonics LUMOS BIO irradiation system. Each well was constantly irradiated at 670 nm (60 min, 13.50 J·cm-2) or 740 nm (60 min, 12.60 J·cm-2). During the irradiation, the temperature of the plate was maintained at 37 °C. The cells were grown in the incubator for an additional 44 or 48 h, respectively. For the determination of the dark cytotoxicity, the cells were not irradiated and after the medium exchange directly incubated for 44 h.
After this time, the medium was replaced with fresh medium containing resazurin (0.2 mg/mL). After […]
4 h of incubation, the conversion of resazurin into resorufin was determined upon excitation at 540 nm and measurement of its emission at 590 nm using a Cytation 5 Imaging Reader from BioTek. The obtained data was analysed with the GraphPad Prism software […]
After 24 h of incubation at 37 °C, 5% CO 2, plates were read using a SpectraMaxM2 Microplate Reader ( λexc = 540 nm; λread = 590 nm). Fluorescence data were normalised, and data were fitted using GraphPad Prism Software, and IC 50 was calculated by non - linear regression. Changes in the size and shape of MCTS were monitored every 24 h using Cytation 5 Imaging Reader from BioTek, objective x4.
Intracellular distribution by confocal fluorescence microscopy
10^4 cells/well (A2780 cells) were seeded in complete medium (RPMI) in µ -slide 8 well (Ibidi) (100 µl/well) and left for 24 h to attach to the bottom. Then, the culture medium was removed , and 100 µl of solution of the corresponding complexes (5 µM) was added. The complexes were incubated with the cells for 4 hours. Thereafter, the medium was removed and replaced by RPMI without phenol red , and Hoechst and MitoTracker Green were added at a final concentration of 1 µg/mL. They were incubated with the cells for 30 min in the dark at 37 °C. Images were collected in a sequential mode in a Leica TCS SP8 confocal microscope with a 60x oil immers ion objective, a line average of 4, and a format of […]
(MTG)→ 500 -550nm, and 488 nm (complexes)→ 680 -730 nm. The confocal pinhole was 1 Airy unit.
Images were analysed with LAS X Flim FCS software.
Intracellular distribution by ICP -MS

[1] abbreviates: Homo sapiens, 168 h, dark, read-out: IC50 Dark.

By IC50 is commonly meant the concentration that inhibits the measured activity by half.

For the compound `O=C1[O][Pt]2([NH][C@@H]3CCCC[C@H]3[NH]2)[O]C1=O` [Oxaliplatin], the IC50 was 0.5 ± 0.7 µM in the assay on A2780 MCTSs (dark, read-out: IC50 Dark) and greater than 100 µM with RPE‐1 cells.
In the assay on A2780 MCTSs, `C=Cc1c(C)c2cc3nc(c(CC(=O)O)c4[nH]c(cc5nc(cc1[nH]2)C(C)=C5CC)c(C)c4C(=O)O)[C@@H](CCC(=O)O)[C@@H]3C` [Ce6, Chlorin e6] gave a PI of no less than 7. Also, the IC50 in the assay on A2780 MCTSs (setting [1]) was greater than 5 µM; in the assay on A2780 MCTSs (Homo sapiens, 740 nm (60 min, 12.60 J·cm^−2), read-out: IC50 Irrad. 740 nm), 0.7 ± 0.4 µM.
For `Cc1cc(Nc2ncc(Cl)c(Nc3ccccc3S(=O)(=O)C(C)C)n2)c(OC(C)C)cc1C1CCNCC1` [Ceritinib], the IC50 with A2780 MCTSs (setting [1]) was greater than 5 µM; with RPE‐1 cells (Homo sapiens), 4.76 ± 0.2 µM.
